Measurements reported in ChEMBL document CHEMBL1150976, “The selectivity of protein kinase inhibitors: a further update” (Biochem J, 2007).
Active and inactive are the calls of the source. The rule behind the calls is not given here.

Tests used:
[1] = molecular target: Serine/threonine-protein kinase PLK1 (Homo sapiens, UniProt P53350); assay: Inhibition of PLK1 in the presence of 5uM ATP
[2] = molecular target: T1, Serine/threonine-protein kinase pim-3 (Homo sapiens, UniProt Q86V86); assay: Inhibition of PIM3 in the presence of 20uM ATP
Aurora kinase C = Aurora kinase C (Homo sapiens, UniProt Q9UQB9); assay: Inhibition of Aurora C in the presence of 5uM ATP
[3] = molecular target: Proto-oncogene tyrosine-protein kinase Src (Gallus gallus, UniProt P00523); assay: Inhibition of Src in the presence of 50uM ATP
[4] = molecular target: Proto-oncogene tyrosine-protein kinase LCK (Mus musculus, UniProt P06240); assay: Inhibition of Lck in the presence of 50uM ATP
Chain of Proto-oncogene tyrosine-protein kinase LCK (P06240 whole entry): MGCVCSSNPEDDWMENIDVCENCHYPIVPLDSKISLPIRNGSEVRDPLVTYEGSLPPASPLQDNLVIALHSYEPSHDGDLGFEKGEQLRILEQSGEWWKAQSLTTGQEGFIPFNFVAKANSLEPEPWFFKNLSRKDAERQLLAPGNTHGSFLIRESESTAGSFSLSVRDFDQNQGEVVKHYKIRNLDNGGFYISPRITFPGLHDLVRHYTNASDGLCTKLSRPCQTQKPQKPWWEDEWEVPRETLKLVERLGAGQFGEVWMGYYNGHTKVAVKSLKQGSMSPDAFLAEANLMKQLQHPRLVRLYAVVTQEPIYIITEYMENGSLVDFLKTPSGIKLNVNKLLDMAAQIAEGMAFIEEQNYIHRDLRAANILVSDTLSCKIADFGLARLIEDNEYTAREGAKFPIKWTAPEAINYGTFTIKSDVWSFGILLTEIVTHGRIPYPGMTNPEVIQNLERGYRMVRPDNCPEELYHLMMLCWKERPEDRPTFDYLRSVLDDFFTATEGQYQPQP

[5] = molecular target: Serine/threonine-protein kinase BRSK2 (Homo sapiens, UniProt Q8IWQ3); assay: Inhibition of BRSK2 in the presence of 50uM ATP
Aurora kinase B = Aurora kinase B (Homo sapiens, UniProt Q96GD4); assay: Inhibition of Aurora B in the presence of 20uM ATP
Chain of Aurora kinase B (Q96GD4 whole entry): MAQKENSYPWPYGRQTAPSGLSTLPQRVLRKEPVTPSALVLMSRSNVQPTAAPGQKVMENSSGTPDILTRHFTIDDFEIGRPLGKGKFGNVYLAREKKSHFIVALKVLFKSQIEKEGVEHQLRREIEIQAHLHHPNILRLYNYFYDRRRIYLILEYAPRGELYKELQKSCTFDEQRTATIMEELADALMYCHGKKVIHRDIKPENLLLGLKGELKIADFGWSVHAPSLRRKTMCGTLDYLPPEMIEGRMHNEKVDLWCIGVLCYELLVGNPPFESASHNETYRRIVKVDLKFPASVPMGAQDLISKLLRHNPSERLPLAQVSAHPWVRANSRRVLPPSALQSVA

[6] = molecular target: Serine/threonine-protein kinase 3 (Homo sapiens, UniProt Q13188); assay: Inhibition of MST2 in the presence of 50uM ATP
Chain of Serine/threonine-protein kinase 3 (Q13188 whole entry): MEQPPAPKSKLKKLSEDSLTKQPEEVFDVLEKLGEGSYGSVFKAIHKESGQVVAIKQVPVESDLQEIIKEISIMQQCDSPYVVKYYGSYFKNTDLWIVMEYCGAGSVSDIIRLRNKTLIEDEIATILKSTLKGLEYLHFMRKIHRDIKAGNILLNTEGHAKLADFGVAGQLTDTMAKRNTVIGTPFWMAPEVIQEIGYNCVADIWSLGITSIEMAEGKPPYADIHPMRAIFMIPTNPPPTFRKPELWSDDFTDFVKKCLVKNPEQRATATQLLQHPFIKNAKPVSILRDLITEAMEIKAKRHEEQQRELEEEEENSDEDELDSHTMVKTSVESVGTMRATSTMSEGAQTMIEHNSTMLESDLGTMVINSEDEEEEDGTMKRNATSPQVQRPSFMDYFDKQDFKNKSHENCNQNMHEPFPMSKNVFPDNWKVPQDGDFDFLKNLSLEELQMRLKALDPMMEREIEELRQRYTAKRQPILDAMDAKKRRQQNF

[7] = Inhibition of AMPK in the presence of 50uM ATP; parameters: species or system Rattus norvegicus
HEK293 [8] = assay: Inhibition of CHK2-T68 phosphorylation in MMS treated HEK293 cells at 0.5uM; assay type: functional, cell-based; conditions: Homo sapiens
HEK293 [9] = assay: Inhibition of CHK1-S345 phosphorylation in MMS treated HEK293 cells at 0.5uM; assay type: functional, cell-based; conditions: Homo sapiens
HEK293 [10] = assay: Inhibition of PKB-S473 phosphorylation in IGF-1 treated HEK293 cells at 0.5uM; assay type: functional, cell-based; conditions: Homo sapiens, filed as antagonist
[11] = molecular target: Serine/threonine-protein kinase Sgk1 (Homo sapiens, UniProt O00141); assay: Inhibition of SGK1 in the presence of 20uM ATP
[12] = molecular target: Dual specificity tyrosine-phosphorylation-regulated kinase 3 (Homo sapiens, UniProt O43781); assay: Inhibition of DYRK3 in the presence of 5uM ATP
[13] = molecular target: Casein kinase I isoform delta (Homo sapiens, UniProt P48730)
[14] = molecular target: Myosin light chain kinase, smooth muscle (Homo sapiens, UniProt Q15746); assay: Inhibition of SmMLCK in the presence of 50uM ATP
[15] = molecular target: T2, Receptor-interacting serine/threonine-protein kinase 2 (Homo sapiens, UniProt O43353); assay: Percentage RIP2 activity remaining in the presence of 1uM inhibitor; conditions: filed as antagonist
T2 sequence (O43353 whole entry): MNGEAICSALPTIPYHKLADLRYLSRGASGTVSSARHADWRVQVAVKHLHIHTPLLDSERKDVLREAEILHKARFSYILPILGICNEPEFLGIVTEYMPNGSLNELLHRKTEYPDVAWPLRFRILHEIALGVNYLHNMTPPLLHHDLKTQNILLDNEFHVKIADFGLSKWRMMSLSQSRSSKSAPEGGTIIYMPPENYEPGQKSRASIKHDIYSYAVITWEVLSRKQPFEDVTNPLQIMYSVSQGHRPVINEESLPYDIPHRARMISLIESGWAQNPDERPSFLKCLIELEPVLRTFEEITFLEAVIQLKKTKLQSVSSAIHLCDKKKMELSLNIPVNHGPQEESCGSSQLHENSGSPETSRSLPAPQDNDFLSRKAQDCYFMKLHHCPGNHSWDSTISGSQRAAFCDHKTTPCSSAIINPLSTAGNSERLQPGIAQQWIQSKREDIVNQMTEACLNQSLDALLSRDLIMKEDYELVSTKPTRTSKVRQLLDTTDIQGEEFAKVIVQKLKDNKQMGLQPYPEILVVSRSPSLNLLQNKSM

[16] = molecular target: T3, Cyclin-G-associated kinase (Homo sapiens) (UniProt O14976); assay: Percentage GAK activity remaining in the presence of 1uM inhibitor; conditions: filed as antagonist
T3 sequence (whole entry): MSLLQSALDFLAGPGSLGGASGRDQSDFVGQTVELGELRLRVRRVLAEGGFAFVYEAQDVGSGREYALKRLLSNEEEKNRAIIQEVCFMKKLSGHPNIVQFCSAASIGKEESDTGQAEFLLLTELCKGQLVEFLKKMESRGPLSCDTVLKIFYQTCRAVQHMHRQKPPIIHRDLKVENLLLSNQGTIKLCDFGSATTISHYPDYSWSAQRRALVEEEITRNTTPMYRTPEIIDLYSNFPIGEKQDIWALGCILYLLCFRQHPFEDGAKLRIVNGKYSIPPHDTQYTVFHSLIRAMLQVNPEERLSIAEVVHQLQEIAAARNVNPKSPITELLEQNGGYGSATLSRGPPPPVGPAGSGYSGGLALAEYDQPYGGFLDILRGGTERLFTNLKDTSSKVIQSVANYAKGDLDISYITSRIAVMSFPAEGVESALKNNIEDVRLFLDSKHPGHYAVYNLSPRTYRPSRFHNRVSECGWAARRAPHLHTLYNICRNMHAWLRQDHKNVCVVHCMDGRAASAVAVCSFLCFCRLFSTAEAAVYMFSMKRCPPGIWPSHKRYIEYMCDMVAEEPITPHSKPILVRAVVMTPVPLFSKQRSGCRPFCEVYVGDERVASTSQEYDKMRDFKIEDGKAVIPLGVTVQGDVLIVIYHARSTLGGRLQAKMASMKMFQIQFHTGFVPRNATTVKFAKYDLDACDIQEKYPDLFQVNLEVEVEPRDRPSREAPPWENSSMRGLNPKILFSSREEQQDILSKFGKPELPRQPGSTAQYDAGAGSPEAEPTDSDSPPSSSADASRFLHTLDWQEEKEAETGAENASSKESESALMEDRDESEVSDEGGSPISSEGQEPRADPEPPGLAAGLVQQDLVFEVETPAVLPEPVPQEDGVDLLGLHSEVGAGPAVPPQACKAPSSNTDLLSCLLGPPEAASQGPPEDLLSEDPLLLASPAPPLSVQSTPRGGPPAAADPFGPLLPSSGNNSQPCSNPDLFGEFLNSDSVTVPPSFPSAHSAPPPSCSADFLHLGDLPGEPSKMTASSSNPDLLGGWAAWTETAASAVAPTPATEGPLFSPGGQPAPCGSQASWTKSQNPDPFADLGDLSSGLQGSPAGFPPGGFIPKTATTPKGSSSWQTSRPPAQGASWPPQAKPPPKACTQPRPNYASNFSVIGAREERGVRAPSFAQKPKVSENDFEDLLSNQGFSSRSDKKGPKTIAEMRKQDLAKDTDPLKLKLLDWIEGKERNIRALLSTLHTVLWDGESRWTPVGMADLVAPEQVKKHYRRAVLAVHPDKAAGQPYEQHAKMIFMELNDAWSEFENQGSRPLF

[17] = molecular target: Serine/threonine-protein kinase pim-2 (Homo sapiens, UniProt Q9P1W9); assay: Inhibition of PIM2 in the presence of 5uM ATP
Chain of Serine/threonine-protein kinase pim-2 (Q9P1W9 whole entry): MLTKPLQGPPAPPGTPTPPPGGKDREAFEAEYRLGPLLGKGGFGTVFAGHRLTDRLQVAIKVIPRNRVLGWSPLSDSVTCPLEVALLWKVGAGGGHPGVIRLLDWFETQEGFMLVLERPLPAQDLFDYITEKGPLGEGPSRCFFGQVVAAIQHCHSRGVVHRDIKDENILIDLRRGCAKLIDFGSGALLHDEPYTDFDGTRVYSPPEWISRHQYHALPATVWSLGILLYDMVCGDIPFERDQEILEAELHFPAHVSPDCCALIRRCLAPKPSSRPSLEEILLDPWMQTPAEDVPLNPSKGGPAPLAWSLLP

[18] = molecular target: Serine/threonine-protein kinase pim-1 (Homo sapiens, UniProt P11309); assay: Inhibition of PIM1 in the presence of 20uM ATP
Chain of Serine/threonine-protein kinase pim-1 (P11309 whole entry): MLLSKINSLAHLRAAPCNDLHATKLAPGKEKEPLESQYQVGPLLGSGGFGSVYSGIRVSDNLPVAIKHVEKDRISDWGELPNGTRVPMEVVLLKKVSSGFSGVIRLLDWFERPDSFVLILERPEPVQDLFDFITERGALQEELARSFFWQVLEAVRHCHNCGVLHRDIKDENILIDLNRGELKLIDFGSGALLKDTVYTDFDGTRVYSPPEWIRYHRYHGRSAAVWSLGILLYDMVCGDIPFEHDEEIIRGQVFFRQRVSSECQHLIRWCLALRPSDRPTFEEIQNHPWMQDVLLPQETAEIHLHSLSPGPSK

[19] = molecular target: Mitogen-activated protein kinase 9 (Homo sapiens, UniProt P45984); assay: Inhibition of JNK2 in the presence of 20uM ATP
[20] = molecular target: T1, Serine/threonine-protein kinase pim-3; assay: Inhibition of PIM3 in the presence of 5uM ATP
[21] = molecular target: Glycogen synthase kinase-3 beta (Homo sapiens, UniProt P49841); assay: Inhibition of GSK3-beta in the presence of 20uM ATP
Chain of Glycogen synthase kinase-3 beta (P49841 whole entry): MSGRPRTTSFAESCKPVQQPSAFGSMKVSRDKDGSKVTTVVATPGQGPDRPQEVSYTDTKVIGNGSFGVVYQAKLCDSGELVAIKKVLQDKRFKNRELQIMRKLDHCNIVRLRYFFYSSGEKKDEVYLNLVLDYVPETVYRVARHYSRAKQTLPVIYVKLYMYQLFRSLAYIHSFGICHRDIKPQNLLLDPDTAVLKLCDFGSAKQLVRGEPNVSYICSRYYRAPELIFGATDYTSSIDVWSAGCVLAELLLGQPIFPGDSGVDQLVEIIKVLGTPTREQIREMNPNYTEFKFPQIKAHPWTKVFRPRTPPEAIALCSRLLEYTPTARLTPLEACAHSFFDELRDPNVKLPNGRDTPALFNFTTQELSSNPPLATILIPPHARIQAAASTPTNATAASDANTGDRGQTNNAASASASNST

[22] = molecular target: Mitogen-activated protein kinase 8 (Homo sapiens, UniProt P45983); assay: Inhibition of JNK1 in the presence of 20uM ATP
[23] = molecular target: Dual specificity tyrosine-phosphorylation-regulated kinase 2 (Homo sapiens, UniProt Q92630); assay: Inhibition of DYRK2 in the presence of 50uM ATP
Chain of Dual specificity tyrosine-phosphorylation-regulated kinase 2 (Q92630 whole entry): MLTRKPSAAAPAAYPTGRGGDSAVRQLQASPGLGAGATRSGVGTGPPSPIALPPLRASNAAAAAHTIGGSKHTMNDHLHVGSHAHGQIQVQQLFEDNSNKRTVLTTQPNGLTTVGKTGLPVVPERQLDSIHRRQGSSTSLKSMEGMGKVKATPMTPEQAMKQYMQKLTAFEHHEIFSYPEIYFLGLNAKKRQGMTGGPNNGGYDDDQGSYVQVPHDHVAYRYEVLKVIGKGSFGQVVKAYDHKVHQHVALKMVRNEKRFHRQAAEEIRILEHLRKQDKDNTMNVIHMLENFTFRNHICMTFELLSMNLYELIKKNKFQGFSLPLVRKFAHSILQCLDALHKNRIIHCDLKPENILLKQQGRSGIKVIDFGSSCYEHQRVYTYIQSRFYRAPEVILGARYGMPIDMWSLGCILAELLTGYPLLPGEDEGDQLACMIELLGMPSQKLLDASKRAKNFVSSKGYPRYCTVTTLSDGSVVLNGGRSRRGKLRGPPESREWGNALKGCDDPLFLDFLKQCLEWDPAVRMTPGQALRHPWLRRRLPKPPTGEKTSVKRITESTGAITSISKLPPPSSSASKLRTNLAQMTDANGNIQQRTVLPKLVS

[24] = molecular target: T1, Serine/threonine-protein kinase pim-3; assay: Inhibition of PIM3 in the presence of 100uM ATP
Casein kinase II = Casein kinase II (Homo sapiens, UniProt P19784+P67870+P68400); assay: Inhibition of CK2 in the presence of 5uM ATP; assay type: protein-complex assay
[25] = molecular target: Serine/threonine-protein kinase D1 (Homo sapiens, UniProt Q15139); assay: Inhibition of PKD1 in the presence of 50uM ATP
Chain of Serine/threonine-protein kinase D1 (Q15139 whole entry): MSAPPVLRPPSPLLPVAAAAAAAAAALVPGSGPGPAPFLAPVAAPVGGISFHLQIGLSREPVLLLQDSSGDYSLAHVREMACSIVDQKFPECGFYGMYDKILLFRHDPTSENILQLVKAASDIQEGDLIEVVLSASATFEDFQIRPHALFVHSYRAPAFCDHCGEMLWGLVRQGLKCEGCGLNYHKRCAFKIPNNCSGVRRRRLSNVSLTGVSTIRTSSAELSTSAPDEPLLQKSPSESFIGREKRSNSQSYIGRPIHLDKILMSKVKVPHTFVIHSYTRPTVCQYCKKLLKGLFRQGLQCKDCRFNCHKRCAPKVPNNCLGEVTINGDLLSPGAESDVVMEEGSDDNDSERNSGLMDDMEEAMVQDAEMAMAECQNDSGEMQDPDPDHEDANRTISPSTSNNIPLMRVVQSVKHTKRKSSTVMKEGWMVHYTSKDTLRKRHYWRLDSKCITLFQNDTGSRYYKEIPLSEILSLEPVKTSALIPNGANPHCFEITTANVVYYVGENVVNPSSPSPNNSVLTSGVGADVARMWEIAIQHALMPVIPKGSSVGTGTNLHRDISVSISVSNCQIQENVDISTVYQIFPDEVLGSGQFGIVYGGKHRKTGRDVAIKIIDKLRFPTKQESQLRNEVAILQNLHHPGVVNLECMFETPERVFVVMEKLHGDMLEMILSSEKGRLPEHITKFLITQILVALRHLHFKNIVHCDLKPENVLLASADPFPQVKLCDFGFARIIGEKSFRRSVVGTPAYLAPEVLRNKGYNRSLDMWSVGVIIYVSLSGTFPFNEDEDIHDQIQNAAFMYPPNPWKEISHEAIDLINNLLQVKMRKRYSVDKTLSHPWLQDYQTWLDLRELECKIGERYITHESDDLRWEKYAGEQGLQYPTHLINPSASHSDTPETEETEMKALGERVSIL

[26] = molecular target: Mitogen-activated protein kinase 14 (Homo sapiens, UniProt Q16539)
[27] = molecular target: Mitogen-activated protein kinase 8 (Homo sapiens, UniProt P45983, M108G); assay: Inhibition of JNK-M108G in the presence of 20uM ATP
[28] = molecular target: cAMP-dependent protein kinase catalytic subunit alpha (Homo sapiens, UniProt P17612); assay: Inhibition of PKA in the presence of 20uM ATP
[29] = molecular target: Tyrosine-protein kinase CSK (Homo sapiens, UniProt P41240); assay: Inhibition of CSK in the presence of 20uM ATP
[30] = molecular target: T2, Receptor-interacting serine/threonine-protein kinase 2; assay: Inhibition of RIP2 in the presence of 100uM ATP
[31] = molecular target: T2, Receptor-interacting serine/threonine-protein kinase 2; assay: Percentage RIP2 activity remaining in the presence of 10uM inhibitor; conditions: filed as antagonist
[32] = molecular target: Mitogen-activated protein kinase 8 (Homo sapiens, UniProt P45983, M108A); assay: Inhibition of JNK-M108A in the presence of 20uM ATP
[33] = molecular target: T3, Cyclin-G-associated kinase (Homo sapiens); assay: Percentage GAK activity remaining in the presence of 10uM inhibitor; conditions: filed as antagonist

In the case of `O=c1cc(N2CCOCC2)oc2c(-c3ccccc3)cccc12` [LY-294002], the IC50 [1] is reported as 2000 nM (antagonist) and the IC50 [2] is reported as 1400 nM (antagonist).

With `CN(C)S(=O)(=O)c1ccc2c(c1)/C(=C/c1cc3c([nH]1)CCCC3)C(=O)N2` the IC50 (Aurora kinase C) was 17 nM (antagonist), the IC50 [3] was 100 nM (antagonist) and the IC50 [4] was 150 nM (antagonist). The IC50 [5] was 100 nM (antagonist), the IC50 (Aurora kinase B) was 19 nM (antagonist) and the IC50 [6] was 110 nM (antagonist). For the same compound, the IC50 [7] was 110 nM (antagonist).

With `Oc1cccc(-c2nc(N3CCOCC3)c3oc4ncccc4c3n2)c1` the Activity (HEK293 [8]) was “inactive”, the Activity (HEK293 [9]) was “inactive” and the Activity (HEK293 [10]) was “Antagonist”.

In the case of `Nc1ncnc2[nH]nc(Nc3ccc(F)cc3)c12`, the IC50 [11] is reported as 2700 nM (antagonist), the IC50 [4] is reported as 2500 nM (antagonist) and the IC50 [12] is reported as 3200 nM (antagonist). The IC50 (Aurora kinase B) was 2500 nM (antagonist) and the IC50 [13] was 510 nM (antagonist).

For `COC[C@H]1OC(=O)c2coc3c2[C@@]1(C)C1=C(C3=O)[C@@H]2CCC(=O)[C@@]2(C)C[C@H]1OC(C)=O` [WORTMANNIN], the IC50 [14] was 5000 nM (antagonist).

In the case of `O=C1Nc2ccc(I)cc2C1=Cc1cc(Br)c(O)c(Br)c1` [GW305074X], the Activity [15] is reported as 35%, the Activity [16] is reported as 32% and the IC50 [17] is reported as 70 nM (antagonist). For the same compound, the IC50 [18] was 170 nM (antagonist) and the IC50 [2] was 100 nM (antagonist).

In the case of `N#C/C(=C1/Nc2ccccc2S1)c1ccnc(NCCc2cccnc2)n1`, the IC50 [19] is reported as 5000 nM (antagonist), the IC50 [20] is reported as 30 nM (antagonist) and the IC50 [21] is reported as 40 nM (antagonist). The IC50 [18] was 80 nM (antagonist), the IC50 [22] was 2600 nM (antagonist) and the IC50 [23] was 300 nM (antagonist).

With `O=C(O)c1ccc2c3c1cccc3c(=O)n1c3ccccc3nc21` the IC50 [24] was 83 nM (antagonist), the IC50 [17] was 110 nM (antagonist) and the IC50 (Casein kinase II) was 190 nM (antagonist). For the same compound, the IC50 [7] was 160 nM (antagonist) and the IC50 [23] was 950 nM (antagonist).

In the case of `NC(=O)c1ccc(-c2nc(-c3ccc4c(c3)OCCO4)c(-c3ccccn3)[nH]2)cc1`, the IC50 [25] is reported as 9100 nM (antagonist) and the IC50 [26] is reported as 5800 nM (antagonist).

In the case of `CC(C)(C)n1nc(Cc2cccc3ccccc23)c2c(N)ncnc21`, the Activity [15] is reported as 14%, the IC50 [27] is reported as 140 nM (antagonist) and the Activity [16] is reported as 43%. For the same compound, the IC50 [28] was 500 nM (antagonist), the IC50 [29] was 510 nM (antagonist) and the IC50 [4] was 460 nM (antagonist). For the same compound, the IC50 [25] was 250 nM (antagonist), the IC50 [30] was 130 nM (antagonist) and the Activity [31] was 5%. For the same compound, the IC50 [32] was 250 nM (antagonist) and the Activity [33] was 6%.
